Data: patent US7498353B2, “Heterocyclic anti-viral compounds comprising metabolizable moieties and their uses” (priority 2005, dated 2009)
Read-outs that look alike come from different tables or passages of the source.

Tests used:
[1] = test system: HCV NS5A protein in 9-13 replicon cells; experiment: Quantitative Western blot replicon assay (HEPC_REPLICON-ICWESTERN); format: cell-based, Hepatitis C virus (HCV); conditions: Hepatitis C virus, read-out: HEPC_REPLICON-ICWESTERN Result Value (IC50)
Experimental: Alternatively, the inhibitory activity of the metabolically active agents of the prodrugs can be confirmed using a quantitative Western immunoblot assay utilizing antibodies specific for HCV non-structural proteins, such as NS3, NS4A NS5A and NS5B. In one embodiment of this assay, replicon cells are treated with varying concentrations of test prodrug to determine the concentration of the metabolically active agent of the test prodrug that yields a 50% reduction in the amount of a non-structural protein produced as compared to a control sample (IC50). A single non-structural protein may be quantified or multiple non-structural proteins may be quantified. Antibodies suitable for carrying out such immunoblot assays are available commercially (e.g., from BIODESIGN International, Saco, Me.).
Certain prodrugs of the invention, which may inhibit HCV translation or replication prior to metablism and/or are metabolized into active agents, were also tested for their ability to inhibit HCV replication using a quantitative Western blot analysis with antibodies specific for the HCV NS5A or other non-structural proteins. Actively dividing 9-13 replicon cells were seeded into 6-well plates at a density of 1×10^5 cells/well in a volume of 2 ml/well and incubated at 37° C. and 5% CO2 for 24 hours. Various concentrations of test prodrugs (in a volume of 10 ul) were added to the wells and the cells incubated for another 48 hours. Protein samples were prepared from the cultured cells, resolved on a SDS-PAGE gel and transferred to a nitrocellulose membrane. The membrane was blocked with 5% non-fat milk in PBS for 1 hour at room temperature. Primary antibody (anti NS5A antibody; BIODESIGN International, Saco, Me.) incubation was performed for 1 hour at room temperature, after which the membrane was washed 3 times (for 15 min per time) with PBST (PBS plus 0.1% Tween 20). Horseradish peroxidase conjugated secondary antibody incubation was performed for 1 hour at room temperature and the membrane was washed 3 times (for 15 min per time) with PBST. The membrane was then soaked in substrate solution (Pierce) and exposed to a film or quantified using an imager. In this assay, the amount of test prodrug that is believed to be transformed into an active agent under the given conditions that yielded a 50% reduction in the amount of NS5A protein translated as compared to a control sample (IC50) was determined.

[2] = Pharmacokinetic studies in portal/jugular vein cannulated rats after oral administration; format: in vivo, male Spraque-Dawley rats; conditions: for AUC: male, Sprague-Dawley, rat, 5 mg/kg oral dose of prodrug
Experimental: Pharamcokinetic studies were conducted in rats containing surgically implanted cannula in the portal and jugular veins. Blood samples were taken simultaneously from both cannula at various times after oral administration of the compounds. In the portal vein, the prodrugs are detected and, in some cases, the active compound, A-B—C—NHCOCHX2, has also been detected. The presence of active compound in the portal vein samples has been attributed to metabolism of the prodrug in transit through the gut wall. […] In the jugular samples, many, but not all, of the prodrugs have been detected in systemic circulation, depending on the hepatic extraction ratio of the prodrug.
Compounds were dissolved in a mixture of TPGS:PEG:PG (35%:60%:5%) and diluted with saline for oral administration. Typically, 6.5 mg of compound was dissolved in 1 ml of the organic mixture and added to 5.5 ml of saline. Animals were dosed with 5 ml/kg of this mixture to give a typical dose of 5 mg/kg. All animal studies were conducted in male Spraque-Dawley rats and the animals were fasted overnight prior to dose administration. Surgeries (to implant blood sampling cannula) were conducted at least two days prior to the study. Blood samples (100 μl) were collected using sodium heparin as anticoagulant and added to 300 μl of a mixture of acetate buffer (100 mM, pH=6.5):acetonitrile:ethanol:DMSO (2:1:1:2 v/v). Samples were centrifuged and the supernatant was analyzed by LC/MS/MS using the procedures outlined above. Standards were prepared similarly using fresh rat blood from naive animals.
No. 66 and Cpd. No. 64 (Table 3). […] Because the portal blood flows directly to the liver, the intact active parent compound may exert an anti-viral effect in the liver.

[3] = test system: HCV replicon in 5-2 Luc replicon-comprising cells; experiment: HCV replicon assay, luciferase readout (HEPC_REPLICON-LUC); format: cell-based; conditions: Hepatitis C virus, read-out: HEPC_REPLICON-LUC Result Value (IC50)
From the text: In one embodiment, the inhibitory activity of the metabolically active agent of the prodrug can be confirmed in a replicon assay that assesses the ability of a test compound to block or inhibit HCV replication in replicon cells. One example of a suitable replicon assay is the liver cell-line Huh 7-based replicon assay described in Lohmann et al., 1999, Science 285:110-113. A specific example of this replicon assay which utilizes luciferase translation is provided in the Examples Section. In one embodiment of this assay, the amount of test prodrug that yields a 50% reduction in translation as compared to a control cell (IC50) may be determined.
The inhibitory activity of certain prodrugs of the invention, which may inhibit HCV translation or replication prior to metablism and/or are metabolized into active agents, was confirmed using an HCV replicon assay. The HCV replicon can include such features as the HCV 5′ untranslated region including the HCV IRES, the HCV 3′ untranslated region, selected HCV genes encoding HCV polypeptides, selectable markers, and a reporter gene such as luciferase, GFP, etc. In the assay, actively dividing 5-2 Luc replicon-comprising cells (obtained from Ralf Bartenschlager; see Lohmann et al., 1999, Science 285:110-113) were seeded at a density of between about 5,000 and 7,500 cells/well onto 96 well plates (about 90 μl of cells per well) and incubated at 37° C. and 5% CO2 for 24 hours. Then, the test prodrug (in a volume of about 10 μl) was added to the wells at various concentrations and the cells were incubated for an additional 24-48 hours before luciferase assay. The media was aspirated from each well and Bright-Glo (Promega, Madison, Wis.) luciferase assay reagents were added to each well according to the manufacturer's instructions. Briefly, the Bright-Glo reagent was diluted 1:1 with PBS and 100 μl of diluted reagent was added to each well. After 5 min of incubation at room temperature, luciferin emission was quantified with a luminometer. In this assay, the amount of test prodrug that yielded a 50% reduction in luciferase emission (IC50) was determined. This IC50 value may represent the antiviral activity of the prodrug itself, the activity of prodrug transformed into its active metabolized form, or a combination of the two.

[4] = 9-13 replicon cells, 50% reduction in NS5A protein
[5] = 5-2 Luc replicon cells, 50% reduction in luciferase emission

Compound | IC50 [1, 4] [nM] | IC50 [3, 5] [nM] | other results
COCN(C(=O)C(Cl)Cl)c1cccc(-c2cc(-c3c(Cl)cccc3Cl)no2)c1 [Cpd. No. 6, 2,2-Dichloro-N-(3-(3-(2,6-dichlorophenyl)isoxazol-5-yl)phenyl)-N-(methoxymethyl)acetamide] | < 1000 | < 1000 | AUC ([2]; portal vein blood): 98.3 ng·h/mL
O=C(Nc1ccnc(-c2cc(-c3c(Cl)cccc3Cl)no2)c1)C(Cl)Cl [Cpd. No. 64] | – | – | Active parent compound concentrations versus dose ([2]; oral, portal vein): increase in a linear fashion with dose; Absorption and hydrolysis of the orally administered parent compound ([2]; oral, portal vein plasma): well absorbed but is extensively hydrolyzed to the inactive metabolite
CCOP(=O)(CCN(C(=O)C(Cl)Cl)c1cccc(-c2cc(-c3c(Cl)cccc3Cl)no2)c1)OCC [Cpd. No. 1, Diethyl 2-(2,2-Dichloro-N-(3-(3-(2,6-dichlorophenyl)isoxazol-5-yl)phenyl)acetamido)ethylphosphonate] | – | – | IC50 [1]: 1000 to 20000 nM; AUC ([2]; in vivo): 176 ng·h/mL; IC50 [3]: > 20000 nM
CC(C)C(N)C(=O)NC(C(=O)CCN(C(=O)C(Cl)Cl)c1ccnc(-c2cc(-c3c(Cl)cccc3Cl)no2)c1)C(C)C (stereo not drawn) [Cpd. No. 48, 2-Amino-N-(6-(2,2-dichloro-N-(2-(3-(2,6-dichlorophenyl)isoxazol-5-yl)pyridin-4-yl)acetamido)-2-methyl-4-oxohexan-3-yl)-3-methylbutanamide] | < 1000 | < 1000 | –
CC(C)C(NC(=O)CNC(=O)OC(C)(C)C)C(=O)CCN(C(=O)C(Cl)Cl)c1ccnc(-c2cc(-c3c(Cl)cccc3Cl)no2)c1 (stereo not drawn) [Cpd. No. 49, tert-Butyl 2-(6-(2,2-Dichloro-N-(2-(3-(2,6-dichlorophenyl)isoxazol-5-yl)pyridin-4-yl)acetamido)-2-methyl-4-oxohexan-3-ylamino)-2-oxoethylcarbamate] | < 1000 | < 1000 | –
N[C@H](C(=O)NCCN(C(=O)C(Cl)Cl)c1cccc(-c2cc(-c3c(Cl)cccc3Cl)no2)c1)c1ccccc1 [Cpd. No. 18, (S)-N-(2-(2-Amino-2-phenylacetamido)ethyl)-2,2-dichloro-N-(3-(3-(2,6-dichlorophenyl)isoxazol-5-yl)phenyl)acetamide] | > 20000 | – | AUC ([2]; portal vein blood): 627 ng·h/mL
CCC(C)C(N)C(=O)CCN(C(=O)C(Cl)Cl)c1ccnc(-c2cc(-c3c(Cl)cccc3Cl)no2)c1 (stereo not drawn) [Cpd. No. 59, N-(4-Amino-5-methyl-3-oxoheptyl)-2,2-dichloro-N-(2-(3-(2,6-dichlorophenyl)isoxazol-5-yl)pyridin-4-yl)acetamide] | < 1000 | < 1000 | –
NCC(=O)CCN(C(=O)C(Cl)Cl)c1ccnc(-c2cc(-c3c(Cl)cccc3Cl)no2)c1 [Cpd. No. 60, N-(4-Amino-3-oxobutyl)-2,2-dichloro-N-(2-(3-(2,6-dichlorophenyl)isoxazol-5-yl)pyridin-4-yl)acetamide] | 1000 to 20000 | < 1000 | –
CCC(C)C(NC(=O)OC(C)(C)C)C(=O)NC(C(=O)CCN(C(=O)C(Cl)Cl)c1ccnc(-c2cc(-c3c(Cl)cccc3Cl)no2)c1)C(C)C (stereo not drawn) [Cpd. No. 51, tert-Butyl 1-(6-(2,2-Dichloro-N-(2-(3-(2,6-dichlorophenyl)isoxazol-5-yl)pyridin-4-yl)acetamido)-2-methyl-4-oxohexan-3-ylamino)-3-methyl-1-oxopentan-2-ylcarbamate] | < 1000 | < 1000 | –
NC(CCC(=O)CCN(C(=O)C(Cl)Cl)c1ccnc(-c2cc(-c3c(Cl)cccc3Cl)no2)c1)C(=O)O (stereo not drawn) [Cpd. No. 5, 2-Amino-7-(2,2-dichloro-N-(2-(3-(2,6-dichlorophenyl)isoxazol-5-yl)pyridin-4-yl)acetamido)-5-oxoheptanoic acid] | < 1000 | < 1000 | –
COCN(C(=O)C(Cl)Cl)c1ccnc(-c2cc(-c3c(Cl)cccc3Cl)no2)c1 [Cpd. No. 7, 2,2-Dichloro-N-(2-(3-(2,6-dichlorophenyl)isoxazol-5-yl)pyridin-4-yl)-N-(methoxymethyl)acetamide] | < 1000 | 1000 to 20000 | –
